Data published in US20210379153A1, “COMBINATION THERAPIES COMPRISING SIRP ALPHA-BASED CHIMERIC PROTEINS” (Shattuck Labs, Inc., priority 2018, published 2021).

How the values were obtained:
[1] = system: K562 (low EGFR-expressing CML cell line); test: Macrophage engulfment of K562 cells; type: cell-based, human
parental CHOK1 cells = test: Flow cytometry binding to parental CHOK1 cells
From the text: Scale is shown and yellow arrows correspond with each identified monomer. A schematic of the hexamer species is shown to the right, depicting dimerization of the Fc domain and trimerization of the CD40L domain. […] Recombinant hSIRPα-Fc, hCD40L-Fc, and hIgG1 were used as positive controls. […] In both panels, the CHOK1 Parental is on the left and the CHOK1/hCD47 is on the right. […] For both graphs, the CHOK1 Parental is on the bottom. […] In this figure, the control is the top curve, the SIRPα-Fc-CD40L is the middle curve, and the anti-CD47 is the bottom curve.
The extracellular domain (ECD) of SIRPα and the ECD of CD40L were fused via an antibody Fc domain to generate SIRPαECD-Fc-CD40LECD chimeric proteins. When human proteins were used, the chimeric protein is referred to as hSIRPα-Fc-CD40L; when murine proteins were used, the chimeric protein is referred to as and mSIRPα-Fc-CD40L. […] The purified protein was then analyzed for the presence of each individual domain by Western blotting using anti-SIRPα, anti-Fc, and anti-CD40L antibodies (FIG. 3A, bottom). […] Next, binding affinities for SIRPα-Fc-CD40L to recombinant CD47, CD40, or Fc receptors were evaluated by surface plasmon resonance (SPR). […] A functional ELISA evaluated whether SIRPα-Fc-CD40L could outcompete a commercially available single-sided SIRPα-Fc control for binding to recombinant CD47 (FIG. 3H).

[2] = system: type I interferon regulatory genes INFα1 and IFNβ1; test: Type I interferon response in Raji cell:macrophage co-cultures; type: cell-based, human
Procedure: (§1) FIG. 8D: Macrophage:Toledo lymphoma co-cultures were harvested 2 hours into phagocytosis assays in the presence of rituximab ([…]), SIRPα-Fc-CD40L ([…]), or the combination of both agents. Macrophages were isolated by CD11b+ FACS, RNA was prepared, cDNA synthesized, and gene expression (IFNa1, IFNb1, CD80, and CD86) assessed by qRT-PCR. Fold change was calculated using DDCT and values obtained from the housekeeping gene ACTB, and the corresponding values from untreated samples. […] After 2 hours, co-cultures were isolated from tissue culture vessels and were stained with a fluorescently conjugated CD11b antibody to discriminate macrophages. Cells were then assessed by flow cytometry for the co-localization of fluorescent signal from both cells types. Identical assays were set up where macrophages were pre-incubated for 1 hour with 20 μg/mL of a commercially available Fc block cocktail or with 20 μg/mL of a CD40 blocking antibody or with 5 μg/mL of a calreticulin blocking peptide. FIG. 8G: RAW 264.7-Lucia ISG cells were cultured with A20 lymphoma cells in the presence of 50 mg/mL of mSIRPα-Fc-CD40L, recombinant Fc-mCD40L, mSIRPα-Fc, or their combination, 1 mg/mL anti-mCD20, or the combination of mSIRPα-Fc-CD40L and anti-mCD20. After 24-hours type I interferon induced luminescence was assessed using a luminometer. The maximum luminescence (RLU) from each experiment was set to 1, and all other samples were normalized accordingly. Values from repeat experiments are shown.

[3] = system: cynomolgus macaque erythrocytes; test: In vitro hemolysis, cynomolgus macaque erythrocytes; type: cell-based
From the text: (§2) However, the in vitro systems used to test this question have significant limitations, including a complete lack of macrophages in the test system.

[4] = system: human donor red blood cells (RBCs); test: In vitro hemolysis assay, human red blood cells; type: cell-based
Procedure: FIG. 22B is a graph showing RBCs and test agents that were incubated at 37° C. for 24 hours and then the media was assessed at OD490 for changes in absorbance due to hemoglobin being released from lysing RBCs. […] FIG. 22D are graphs showing that peripheral blood was isolated from mice receiving three IP doses (300 μg) of the murine SIRPα-Fc-CD40L surrogate (arrows). Cell populations were assessed by flow cytometry and included CD20+ B cells, CD110+, CD4+/CD11c+, and CD8+/CD11c+ dendritic cells.
as §2

[5] = system: IRF-inducible ISG reporter in RAW264.7 cells; test: RAW264.7-ISG interferon reporter cells co-cultured with A20 lymphoma cells; type: cell-based, mouse; conditions: monotherapy; 50 mg/mL proteins, 1 mg/mL anti-mCD20; 24 hours
Procedure: as §1, with “Identical assays were set up where macrophages were pre-incubated for 1 hour with 20 μg/mL of a commercially available Fc block cocktail or with 20 μg/mL of a CD40 blocking antibody or with 5 μg/mL of a calreticulin blocking peptide. FIG. 8G: RAW 264.7-Lucia ISG cells were cultured with A20 lymphoma cells in the presence of 50 mg/mL of mSIRPα-Fc-CD40L, recombinant Fc-mCD40L, mSIRPα-Fc, or their combination, 1 mg/mL anti-mCD20, or the combination of mSIRPα-Fc-CD40L and anti-mCD20.” left out, “Values from repeat experiments are shown.” left out
Additionally, a macrophage reporter system was used to detect activation. […] After 24 hours, culture supernatant was collected and assessed for luciferase activity, which would indicate activation of a type I interferon response in the RAW-ISG reporter cells. […]

[6] = system: A431 (high EGFR-expressing skin cancer cell line); test: Macrophage engulfment of A431 cells; type: cell-based, human; conditions: combination with anti-EGFR antibody (cetuximab); vs low EGFR-expressing tumor cells

SIRPα-Fc-CD40L: generic name of the SIRPαECD-Fc-CD40LECD chimeric protein; human or murine version according to the experiment
phagocytic activity ([1]; combination with cetuximab): no phagocytic activity
phagocytic activity ([1]; monotherapy): no phagocytic activity
binding (parental CHOK1 cells): not to parental CHOK1 cells
IFNβ protein synthesis ([2]; combination with anti-CD20 antibody): significantly greater
RNA expression of INFα1 ([2]; combination with anti-CD20 antibody vs either component alone): significantly greater
RNA expression of IFNβ1 ([2]; combination with anti-CD20 antibody vs sum of alone treatments): greater than the sum
hemolysis [3]: did not reveal evidence of hemolysis
hemolysis [4]: did not reveal evidence of hemolysis
interferon gene-driven luciferase activity (type I IFN response) [5]: stimulates an increase in interferon gene-driven luciferase activity
macrophage engulfment of tumor cells [6]: more effective
